According to patent US20190322676A1, “CERAMIDE GALACTOSYLTRANSFERASE INHIBITORS FOR THE TREATMENT OF DISEASE” (BioMarin Pharmaceutical Inc., priority 2016, published 2019):
Counter-ions that a name gives are not always drawn.

target: T1, human CGT (ceramide galactosyltransferase), CHO/CGT lysate (Homo sapiens, UniProt Q16880); test: CGT enzyme assay, RapidFire/MS/MS readout (Table 1 ranges with one asterisk *); format: biochemical; settings: RapidFire method (range with one asterisk *)
T1 construct: Full-length human CGT cDNA was cloned into the BamH1/Xho1 site of pcDNA3.1 (+); expressed in transfected cells; host or cells: Chinese hamster ovary (CHO) cells; lysate prepared with M-PER
T1 sequence (Q16880 21-541): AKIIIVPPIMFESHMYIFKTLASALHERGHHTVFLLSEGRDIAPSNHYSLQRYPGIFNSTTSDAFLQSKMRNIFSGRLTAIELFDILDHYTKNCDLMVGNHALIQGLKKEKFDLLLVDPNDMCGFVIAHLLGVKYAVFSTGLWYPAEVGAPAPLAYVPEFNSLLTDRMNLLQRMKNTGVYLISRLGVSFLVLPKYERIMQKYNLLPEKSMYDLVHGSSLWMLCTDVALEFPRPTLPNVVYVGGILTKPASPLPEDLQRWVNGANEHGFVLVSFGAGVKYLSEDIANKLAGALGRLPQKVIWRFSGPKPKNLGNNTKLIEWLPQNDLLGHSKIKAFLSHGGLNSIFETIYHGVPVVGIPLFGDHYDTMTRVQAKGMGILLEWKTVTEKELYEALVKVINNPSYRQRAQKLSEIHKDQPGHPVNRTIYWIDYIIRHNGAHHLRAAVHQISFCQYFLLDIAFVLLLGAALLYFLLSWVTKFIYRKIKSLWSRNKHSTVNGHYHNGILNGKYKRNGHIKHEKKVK
Procedure, shortened: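 IC50s come from variable-slope dose-response fits of internal-standard-normalized C6-NBD-dihydro-galactosylceramide, measured by RapidFire/MS/MS (ESI negative). Reactions: 1 h, 37 °C, human CGT-expressing CHO lysate (4 μg), 0.001–50 μM compound, 10 μM NBD-dihydro-ceramide, 17.5 μM UDP-galactose, 0.5% DMSO, pH 7.2; 0.01% Tween 80 added for ** values.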

First: COc1cc(C(F)(F)[C@H](NS(=O)(=O)c2ccc(OCC3CCCCC3)cc2)C(=O)N2C3CCC2CC(N)C3)ccc1Br (stereo partly drawn) [Compound 128-1, N-((2R)-3-(3-amino-8-azabicyclo[3.2.1]octan-8-yl)-1-(4-bromo-3-methoxyphenyl)-1,1-difluoro-3-oxopropan-2-yl)-4-(cyclohexylmethoxy) benzenesulfonamide]
Second: COc1cc(C(F)(F)[C@@H](NS(=O)(=O)c2ccc(OCC3CCCCC3)cc2)C(=O)N2C3CCC2CC(N)C3)ccc1Br (stereo partly drawn) [Compound 128-2, N-((2S)-3-(3-amino-8-azabicyclo[3.2.1]octan-8-yl)-1-(4-bromo-3-methoxyphenyl)-1,1-difluoro-3-oxopropan-2-yl)-4-(cyclohexylmethoxy)benzenesulfonamide]
The IC50 of the first is lower: under 1 µM for the first, 1 to 10 µM for the second. The first is the more potent here.

`CN([C@@H](C(=O)N1C2CCC1CC(N)C2)C(F)(F)c1ccc(O)cc1)S(=O)(=O)c1ccc2cc(OC3CCCC3)ccc2c1` (stereo partly drawn) [Compound 110-2, N-((2S)-3-(3-amino-8-azabicyclo[3.2.1]octan-8-yl)-1,1-difluoro-1-(4-hydroxyphenyl)-3-oxopropan-2-yl)-6-(cyclopentyloxy)-N-methylnaphthalene-2-sulfonamide trifluoroacetate] and `CN([C@@H](C(=O)N1C2CCC1CC(N)C2)C(F)(F)c1ccc(Br)cc1)S(=O)(=O)c1ccc2cc(OC3CCCC3)ccc2c1` (stereo partly drawn) [Compound 34-2, N-((2S)-3-(3-amino-8-azabicyclo[3.2.1]octan-8-yl)-1-(4-bromophenyl)-1,1-difluoro-3-oxopropan-2-yl)-6-(cyclopentyloxy)-N-methylnaphthalene-2-sulfonamide trifluoroacetate] fall in the same range of IC50: 30 to 100 µM for the first, 30 to 100 µM for the second.

`NC1CC2CCC(C1)N2C(=O)[C@H](NS(=O)(=O)c1ccc2cc(OC3CCCC3)ccc2c1)C(F)(F)c1ccc(-c2ccc(F)cc2)cc1` (stereo partly drawn) [Compound 56-2, N-((2S)-3-(3-amino-8-azabicyclo[3.2.1]octan-8-yl)-1,1-difluoro-1-(4′-fluoro-[1,1′-biphenyl]-4-yl)-3-oxopropan-2-yl)-6-(cyclopentyloxy)naphthalene-2-sulfonamide trifluoroacetate] and `NC1CC2CCC(C1)N2C(=O)[C@H](NS(=O)(=O)c1ccc2cc(OC3CCCC3)ccc2c1)C(F)(F)c1ccc(Oc2ccc(Cl)cc2)cc1` (stereo partly drawn) [Compound 121-2, N-((2S)-3-(3-amino-8-azabicyclo[3.2.1]octan-8-yl)-1-(4-(4-chlorophenoxy)phenyl)-1,1-difluoro-3-oxopropan-2-yl)-6-(cyclopentyloxy)naphthalene-2-sulfonamide] fall in the same range of IC50: 1 to 10 µM for the first, 1 to 10 µM for the second.

`NC1CCN(C(=O)[C@H](NC(=O)[C@@H](O)c2ccc(OCC3CCCCC3)cc2)C(F)(F)c2ccc(-c3ccc(Cl)cc3)cc2)CC1` [Compound 141-2, (S)—N—((S)-3-(4-aminopiperidin-1-yl)-1-(4′-chloro-[1,1′-biphenyl]-4-yl)-1,1-difluoro-3-oxopropan-2-yl)-2-(4-(cyclohexylmethoxy)phenyl)-2-hydroxyacetamide trifluoroacetate] and `NC1CC2CCC(C1)N2C(=O)[C@H](NS(=O)(=O)c1ccc2c(cnn2CC2CCCC2)c1)C(F)(F)c1ccc(-c2ccc(Cl)cc2)cc1` (stereo partly drawn) [Compound 94-2, N-((2S)-3-(3-amino-8-azabicyclo[3.2.1]octan-8-yl)-1-(4′-chloro-[1,1′-biphenyl]-4-yl)-1,1-difluoro-3-oxopropan-2-yl)-1-(cyclopentylmethyl)-1H-indazole-5-sulfonamide] fall in the same range of IC50: 10 to 30 µM for the first, 10 to 30 µM for the second.

Compared with `N[C@@H]1CCN(C(=O)[C@@H](NS(=O)(=O)c2ccc3cc(OC4CCCC4)ccc3c2)C(F)(F)c2ccc(Br)cc2)C1` [Compound 139-1, N—((R)-3-((R)-3-aminopyrrolidin-1-yl)-1-(4-bromophenyl)-1,1-difluoro-3-oxopropan-2-yl)-6-(cyclopentyloxy)naphthalene-2-sulfonamide], `NC1CC2CCC(C1)N2C(=O)[C@H](NS(=O)(=O)c1ccc2cc(OC3CCCC3)ccc2c1)C(F)(F)c1ccc(I)cc1` (stereo partly drawn) [Compound 42-2, N-((2S)-3-(3-amino-8-azabicyclo[3.2.1]octan-8-yl)-1,1-difluoro-1-(4-iodophenyl)-3-oxopropan-2-yl)-6-(cyclopentyloxy) naphthalene-2-sulfonamide trifluoroacetate] is higher in IC50: under 1 µM for the first, 1 to 10 µM for the second. The first is the more potent here.

Compared with `CCCCOc1cc(C(F)(F)[C@H](NS(=O)(=O)c2ccc(OCC3CCCCC3)cc2)C(=O)N2C3CCC2CC(N)C3)ccc1Cl` (stereo partly drawn) [Compound 120-1, N-((2R)-3-(3-amino-8-azabicyclo[3.2.1]octan-8-yl)-1-(3-butoxy-4-chlorophenyl)-1,1-difluoro-3-oxopropan-2-yl)-4-(cyclohexylmethoxy) benzenesulfonamide], `NC1CC2CCC(C1)N2C(=O)[C@H](NS(=O)(=O)c1ccc(OCC2CCCCC2)cc1)C(F)(F)c1ccc2cc(Br)ccc2c1` (stereo partly drawn) [Compound 40-2, N-((2S)-3-(3-amino-8-azabicyclo[3.2.1]octan-8-yl)-1-(6-bromonaphthalen-2-yl)-1,1-difluoro-3-oxopropan-2-yl)-4-(cyclohexylmethoxy)benzenesulfonamide trifluoroacetate] is higher in IC50: under 1 µM for the first, 10 to 30 µM for the second.

Compared with `NC1CCN(C(=O)[C@H](NS(=O)(=O)c2ccc3cc(OC4CCCC4)ccc3c2)C(F)(F)c2cccc(-c3ccccc3)c2)CC1` [Compound 69-2, (S)—N-(1-([1,1′-biphenyl]-3-yl)-3-(4-aminopiperidin-1-yl)-1,1-difluoro-3-oxopropan-2-yl)-6-(cyclopentyloxy)naphthalene-2-sulfonamide trifluoroacetate], `NC1CCN(C(=O)[C@@H](NS(=O)(=O)c2ccc3cc(OC4CCCC4)ccc3c2)C(F)(F)c2ccc(OC3CCCCC3)cc2)CC1` [Compound 97-1, (R)—N-(3-(4-aminopiperidin-1-yl)-1-(4-(cyclohexyloxy)phenyl)-1,1-difluoro-3-oxopropan-2-yl)-6-(cyclopentyloxy)naphthalene-2-sulfonamide] is lower in IC50: 30 to 100 µM for the first, 1 to 10 µM for the second. The second is the more potent here.

`CN([C@H](C(=O)N1C2CCC1CC(N)C2)C(F)(F)c1ccc(Oc2ccccc2)cc1)S(=O)(=O)c1ccc(OCC2CCCCC2)cc1` (stereo partly drawn) [Compound 85-1, N-((2R)-3-(3-amino-8-azabicyclo[3.2.1]octan-8-yl)-1,1-difluoro-3-oxo-1-(4-phenoxyphenyl)propan-2-yl)-4-(cyclohexylmethoxy)-N-methylbenzene sulfonamide trifluoroacetate] and `NC1CC2CCC(C1)N2C(=O)[C@@H](NS(=O)(=O)c1ccc(OCC2CCCCC2)cc1)C(F)(F)c1cccc(-c2ccccc2)c1` (stereo partly drawn) [Compound 70-1, N-((2R)-1-([1,1′-biphenyl]-3-yl)-3-(3-amino-8-azabicyclo[3.2.1]octan-8-yl)-1,1-difluoro-3-oxopropan-2-yl)-4-(cyclohexylmethoxy)benzenesulfonamide trifluoroacetate] fall in the same range of IC50: 1 to 10 µM for the first, 1 to 10 µM for the second.

First: NC1CC2CCC(C1)N2C(=O)[C@@H](NS(=O)(=O)c1ccc(OCC2CCCC2)cc1)C(F)(F)c1ccc2cc(Br)ccc2c1 (stereo partly drawn) [Compound 39-1, N-((2R)-3-(3-amino-8-azabicyclo[3.2.1]octan-8-yl)-1-(6-bromonaphthalen-2-yl)-1,1-difluoro-3-oxopropan-2-yl)-4-(cyclopentylmethoxy) benzenesulfonamide trifluoroacetate]
Second: NC1CC2CCC(C1)N2C(=O)[C@@H](NS(=O)(=O)c1ccc2cc(OC3CCCC3)ccc2c1)C(F)(F)c1ccc(C(F)(F)F)cc1 (stereo partly drawn) [Compound 54-1, N-((2R)-3-(3-amino-8-azabicyclo[3.2.1]octan-8-yl)-1,1-difluoro-3-oxo-1-(4-(trifluoromethyl)phenyl)propan-2-yl)-6-(cyclopentyloxy)naphthalene-2-sulfonamide]
The IC50 of the first is higher: 1 to 10 µM for the first, under 1 µM for the second. The second is the more potent here.

Compared with `CN([C@H](C(=O)N1C2CCC1CC(N)C2)C(F)(F)c1ccc(Cl)cc1)S(=O)(=O)c1ccc2cc(OC3CCCC3)ccc2c1` (stereo partly drawn) [Compound 52-1, N-((2R)-3-(3-amino-8-azabicyclo[3.2.1]octan-8-yl)-1-(4-chlorophenyl)-1,1-difluoro-3-oxopropan-2-yl)-6-(cyclopentyloxy)-N-methylnaphthalene-2-sulfonamide], `CCN([C@H](C(=O)N1C2CCC1CC(N)C2)C(F)(F)c1ccc(Br)cc1)S(=O)(=O)c1ccc2cc(OC3CCCC3)ccc2c1` (stereo partly drawn) [Compound 68-1, N-((2R)-3-(3-amino-8-azabicyclo[3.2.1]octan-8-yl)-1-(4-bromophenyl)-1,1-difluoro-3-oxopropan-2-yl)-6-(cyclopentyloxy)-N-ethylnaphthalene-2-sulfonamide] is higher in IC50: under 1 µM for the first, 1 to 10 µM for the second. The first is the more potent here.

With `NC1CC2CCC(C1)N2C(=O)[C@H](NS(=O)(=O)c1ccc2c(cnn2CC2CCCC2)c1)C(F)(F)c1ccc(Cl)cc1` (stereo partly drawn) [Compound 88-2, N-((2S)-3-(3-amino-8-azabicyclo[3.2.1]octan-8-yl)-1-(4-chlorophenyl)-1,1-difluoro-3-oxopropan-2-yl)-1-(cyclopentylmethyl)-1H-indazole-5-sulfonamide] the IC50 was 30 to 100 µM.
